Experimental data taken from patent publication US20240262812A1, “N-SUBSTITUTED PHENYLSULFONAMIDE COMPOUND AND USE THEREOF” (Shanghai Leado Pharmatech Co., Ltd., priority 2021, published 2024).

Target: T1, mTRPA1 (Mus musculus, UniProt Q8BLA8)
T1 construct: expressed in transfected cells
Test: IonWorks Barracuda (IWB) automated patch clamp, TRPA1 inhibitory activity
Type: cell-based
Settings: HEK293 cells stably expressing mTRPA1, current induced by AITC, amplitude at +100 mV; read-out: IC50 (inhibition activity on TRPA1)
Protocol: In this example, the inhibitory activity of the compounds prepared in some examples of the present invention on transient receptor potential channel protein ankyrin 1 (TRPA1) was tested. Among them, compound of formula A (WO2010075353) was used as the positive control compound: […]
Test method using IonWorks Barracuda (IWB) automated patch clamp detection: HEK293 cells stably expressing mTRPA1 were placed in the T175 culture flask with DMEM medium containing 15 µg/mL Blasticidin S HCl, 200 µg/mL Hygromycin B and 10% FBS, and cultured in 37° C., 5% CO2 incubator. When the cell density reached about 80%, the culture medium was removed, washed once with phosphate buffered saline (PBS) without calcium and magnesium. 3 mL of Trypsin was added to digest for 2 min, 7 mL of culture solution was added to terminate the digestion. The cells were collected to 15 mL centrifuge tube and centrifuged at 800 rpm for 3 min. After the supernatant was removed, the cells were added to appropriate volume of extracellular fluid for re-suspending, and the cell density was controlled at 2-3×10^6/mL for use in IWB experiment. Extracellular fluid formulation (in mM): 140 NaCl, 5 KCl, 1 MgCl2, 10 HEPES, 0.5 EGTA, 10 Glucose (pH 7.4); intracellular fluid formulation (in mM): 140 CsCl, 10 HEPES, 5 EGTA, 0.1 CaCl2, 1 MgCl2 (pH 7.2). 28 mg/mL of amphotericin B was freshly prepared with DMSO on the day of experiment, and then final concentration of 0.1 mg/mL was prepared with intracellular fluid.
Population patch clamp (PPC) plate was used in IWB experiment. The entire detection process was automatically carried out by the instrument, that is, extracellular fluid was added into 384 wells of PPC plate, and after intracellular fluid was added under PPC plate (in plenum), 6 µL of cell fluid was added for sealing test, and finally the intracellular fluid in plenum was replaced with intracellular fluid containing amphotericin B to establish a whole-cell recording mode after perforating sealed cells. The sampling frequency for recording TPRA1 current was 10 kHz, the cells were clamped at 0 mV, the voltage stimulation command (channel protocol) was a ramp voltage from −100 mV to +100 mV for 300 ms. This voltage stimulation was applied every 10 s, mTRPA1 current was induced by 300 µM AITC.
Data recording and current amplitude measurement export were carried out by IWB software (version 2.5.3, Molecular Devices Corporation, Union City, CA). No statistics was recorded for holes with sealing impedance lower than 20 MΩ. The original current data was corrected by software for leak subtraction. TRPA1 current amplitude was measured at +100 mV. […] If IC50 value of HC030031 exceeded 3 times of the average IC50 value previously obtained on each plate, it would be re-tested. The dose-effect curve of compounds and IC50 were fitted and calculated by GraphPad Prism 5.02 (GraphPad Software, San Diego, CA).
Some compounds of the present invention were subjected to IC50 inhibition activity test using the IonWorks Barracuda (IWB) automated patch clamp detection method.

T1 sequence (Q8BLA8 whole entry): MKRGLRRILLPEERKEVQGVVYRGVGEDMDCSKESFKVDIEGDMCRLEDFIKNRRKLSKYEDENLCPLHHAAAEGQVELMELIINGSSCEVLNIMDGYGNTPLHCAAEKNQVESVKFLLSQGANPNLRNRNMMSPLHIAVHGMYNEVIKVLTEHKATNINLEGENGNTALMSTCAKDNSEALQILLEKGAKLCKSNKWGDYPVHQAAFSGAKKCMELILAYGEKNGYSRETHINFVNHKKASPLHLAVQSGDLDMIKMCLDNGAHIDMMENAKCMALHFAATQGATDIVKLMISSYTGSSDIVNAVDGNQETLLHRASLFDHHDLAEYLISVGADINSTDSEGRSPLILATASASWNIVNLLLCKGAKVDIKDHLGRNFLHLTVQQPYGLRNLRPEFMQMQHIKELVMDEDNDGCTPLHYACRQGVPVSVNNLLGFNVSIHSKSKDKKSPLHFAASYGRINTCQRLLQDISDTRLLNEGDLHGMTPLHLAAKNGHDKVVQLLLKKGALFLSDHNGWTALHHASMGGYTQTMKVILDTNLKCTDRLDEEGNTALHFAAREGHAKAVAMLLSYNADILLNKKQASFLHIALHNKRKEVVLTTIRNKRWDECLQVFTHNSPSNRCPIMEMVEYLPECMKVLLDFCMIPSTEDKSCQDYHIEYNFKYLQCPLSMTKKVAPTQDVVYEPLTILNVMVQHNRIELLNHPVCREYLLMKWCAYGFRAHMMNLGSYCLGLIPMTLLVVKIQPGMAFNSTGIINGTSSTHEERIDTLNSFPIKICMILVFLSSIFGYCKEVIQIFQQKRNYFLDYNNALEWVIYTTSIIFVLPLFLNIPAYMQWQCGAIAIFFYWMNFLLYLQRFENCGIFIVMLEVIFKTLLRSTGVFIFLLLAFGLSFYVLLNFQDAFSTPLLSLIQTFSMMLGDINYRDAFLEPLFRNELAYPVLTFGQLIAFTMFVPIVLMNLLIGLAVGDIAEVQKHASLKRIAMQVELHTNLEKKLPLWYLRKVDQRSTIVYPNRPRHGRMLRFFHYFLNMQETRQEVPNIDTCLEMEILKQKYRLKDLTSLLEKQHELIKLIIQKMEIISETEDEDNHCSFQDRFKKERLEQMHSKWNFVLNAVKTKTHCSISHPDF

Row | SMILES | IC50
1 | C[C@H]1CCCN1c1ccc(-c2csc(NC(=O)Cn3cnc4c3c(=O)n(C)c(=O)n4C)n2)cc1F [Compound of formula A, reference compound] | 50 to 100 µM
2 | CNCc1ccc(-c2ccco2)c(NS(=O)(=O)c2ccccc2F)c1 [IA-2, 2-Fluoro-N-(2-(furan-2-yl)-5-((methylamino)methyl)phenyl)benzenesulfonamide] | 1 to 5 µM
3 | CNCc1ccc(-c2ccco2)c(NS(=O)(=O)c2cccc(F)c2)c1 [IA-3, 3-Fluoro-N-(2-(furan-2-yl)-5-((methylamino)methyl)phenyl)benzenesulfonamide] | 1 to 5 µM
4 | CNCc1ccc(-c2ccco2)c(NS(=O)(=O)c2ccccc2)c1 [IA-4, N-(2-(furan-2-yl)-5-((methylamino)methyl)phenyl)benzenesulfonamide] | 1 to 5 µM
5 | CNCc1ccc(-c2ccco2)c(NS(=O)(=O)c2ccc(OC)cc2)c1 [IA-6, 4-Methoxy-N-(2-(furan-2-yl)-5-((methylamino)methyl)phenyl)benzenesulfonamide] | 5 to 10 µM
6 | CNCc1ccc(-c2ccco2)c(NS(=O)(=O)c2ccc(Cl)cc2)c1 [IA-7] | 5 to 10 µM
7 | CNCc1ccc(-c2ccco2)c(NS(=O)(=O)c2ccccc2OC(F)(F)F)c1 [IA-8, 2-Trifluoromethoxy-N-(2-(furan-2-yl)-5-((methylamino)methyl)phenyl)benzenesulfonamide] | 10 to 20 µM
8 | CNCc1ccc(-c2ccco2)c(NS(=O)(=O)c2ccc(OC(F)(F)F)cc2)c1 [IA-9, 4-Trifluoromethoxy-N-(2-(furan-2-yl)-5-((methylamino)methyl)phenyl)benzenesulfonamide] | 20 to 50 µM
9 | CNCc1ccc(-c2ccco2)c(NS(=O)(=O)c2ccc(C)cc2)c1 [IA-10, 4-Methyl-N-(2-(furan-2-yl)-5-((methylamino)methyl)phenyl)benzenesulfonamide] | 1 to 5 µM
10 | CNCc1ccc(-c2ccco2)c(NS(=O)(=O)c2c(F)cccc2F)c1 [IA-12, 2,6-Difluoro-N-(2-(furan-2-yl)-5-((methylamino)methyl)phenyl)benzenesulfonamide] | 5 to 10 µM
11 | CNCc1ccc(-c2ccco2)c(NS(=O)(=O)c2ccc(C(F)(F)F)cc2)c1 [IA-13, 4-Trifluoromethyl-N-(2-(furan-2-yl)-5-((methylamino)methyl)phenyl)benzenesulfonamide] | 10 to 20 µM
12 | CNCc1ccc(-c2ccco2)c(NS(=O)(=O)c2ccc3ccccc3c2)c1 [IA-14, N-(2-(furan-2-yl)-5-((methylamino)methyl)phenyl)naphthalene-2-sulfonamide] | 50 to 100 µM
13 | CNCc1ccc(-c2ccco2)c(NS(=O)(=O)c2ccc3ncsc3c2)c1 [IA-16, N-(2-(furan-2-yl)-5-((methylamino)methyl)phenyl)benzothiazole-6-sulfonamide] | 5 to 10 µM
14 | CNCc1ccc(-c2ccco2)c(NS(=O)(=O)c2cccnc2)c1 [IA-17, N-(2-(furan-2-yl)-5-((methylamino)methyl)phenyl)pyridine-3-sulfonamide] | 5 to 10 µM
15 | CNCc1ccc(-c2ccco2)c(NS(=O)(=O)c2ccc(Cl)nc2)c1 [IA-18, 6-Chloro-N-(2-(furan-2-yl)-5-((methylamino)methyl)phenyl)pyridine-3-sulfonamide] | 10 to 20 µM
16 | CNCc1ccc(-c2ccco2)c(NS(=O)(=O)c2cccs2)c1 [IA-20, N-(2-(furan-2-yl)-5-((methylamino)methyl)phenyl)thiophene-2-sulfonamide] | 1 to 5 µM
17 | CNCc1ccc(-c2ccco2)c(NS(=O)(=O)c2ccc(Cl)s2)c1 [IA-22, 5-Chloro-N-(2-(furan-2-yl)-5-((methylamino)methyl)phenyl)thiophene-2-sulfonamide] | 20 to 50 µM
18 | CNCc1ccc(-c2ccco2)c(NS(=O)(=O)c2ccc(Br)s2)c1 [IA-23, 5-Bromo-N-(2-(furan-2-yl)-5-((methylamino)methyl)phenyl)thiophene-2-sulfonamide] | 10 to 20 µM

Row | SMILES | IC50
19 | CNCc1ccc(-c2ccco2)c(NS(=O)(=O)Cc2ccccc2)c1 [IA-24, N-(2-(furan-2-yl)-5-((methylamino)methyl)phenyl)-1-phenylmethanesulfonamide] | 20 to 50 µM
20 | O=S(=O)(Nc1cc(CNCC(F)(F)F)ccc1-c1ccco1)c1ccccc1 [IA-25] | 20 to 50 µM
21 | CNCc1ccc(NS(=O)(=O)c2ccccc2)c(-c2ccco2)c1 [IA-26, N-(2-(furan-2-yl)-4-((methylaamino)methyl)phenyl)benzenesulfonamide] | 1 to 5 µM
22 | CNCc1ccc(NS(=O)(=O)c2ccc(F)cc2)c(-c2ccco2)c1 [IA-27, 4-Fluoro-N-(2-(furan-2-yl)-4-((methylamino)methyl)phenyl)benzenesulfonamide] | 1 to 5 µM
23 | CNCc1ccc(NS(=O)(=O)c2ccccc2F)c(-c2ccco2)c1 [IA-28, 2-Fluoro-N-(2-(furan-2-yl)-4-((methylamino)methyl)phenyl)benzenesulfonamide] | 1 to 5 µM
24 | CNCc1ccc(NS(=O)(=O)c2cccs2)c(-c2ccco2)c1 [IA-29, N-(2-(furan-2-yl)-4-((methylamino)methyl)phenyl)thiophene-2-sulfonamide] | < 1 µM
25 | CNCc1ccc(NS(=O)(=O)c2cccnc2)c(-c2ccco2)c1 [IA-31, N-(2-(furan-2-yl)-4-((methylamino)methyl)phenyl)pyridine-3-sulfonamide] | 5 to 10 µM
26 | CCNCc1ccc(NS(=O)(=O)c2ccsc2)c(-c2ccco2)c1 [IA-32, N-(4-((ethylamino)methyl)-2-(furan-2-yl)phenyl)thiophene-3-sulfonamide] | < 1 µM
27 | O=S(=O)(Nc1ccc(CNC2CCC2)cc1-c1ccco1)c1ccsc1 [IA-34, N-(4-((cyclobutylamino)methyl)-2-(furan-2-yl)phenyl)thiophene-3-sulfonamide] | 1 to 5 µM
28 | CNCc1ccc(NS(=O)(=O)c2ccccc2)cc1-c1ccco1 [IA-36, N-(3-(furan-2-yl)-4-((methylamino)methyl)phenyl)benzenesulfonamide] | 20 to 50 µM
29 | CNCc1cc(NS(=O)(=O)c2ccccc2)cc(-c2ccco2)c1 [IA-39, N-(3-(furan-2-yl)-5-((methylamino)methyl)phenyl)benzenesulfonamide] | 20 to 50 µM
30 | CNCc1ccc(-c2ccco2)cc1NS(=O)(=O)c1ccccc1 [IA-40, N-(5-(furan-2-yl)-2-((methylamino)methyl)phenyl)benzenesulfonamide] | 50 to 100 µM
31 | CNCc1ccc(-c2ccoc2)c(NS(=O)(=O)c2ccc(F)cc2)c1 [IA-41, 4-Fluoro-N-(2-(furan-3-yl)-5-((methylamino)methyl)phenyl)benzenesulfonamide] | 5 to 10 µM
32 | CNCc1ccc(-c2ccoc2)c(NS(=O)(=O)c2ccccc2)c1 [IA-42, N-(2-(furan-3-yl)-5-((methylamino)methyl)phenyl)benzenesulfonamide] | 1 to 5 µM
33 | CNCc1ccc(-c2cccs2)c(NS(=O)(=O)c2ccccc2)c1 [IA-46, N-(2-(thiophene-2-yl)-5-((methylamino)methyl)phenyl)benzenesulfonamide] | 1 to 5 µM
34 | CNCc1ccc(-c2cccs2)c(NS(=O)(=O)c2cccs2)c1 [IA-47, N-(2-(thiophene-2-yl)-5-((methylamino)methyl)phenyl)thiophene-2-sulfonamide] | 1 to 5 µM
35 | CNCc1ccc(-c2cccs2)c(NS(=O)(=O)c2ccsc2)c1 [IA-48, N-(2-(thiophene-2-yl)-5-((methylamino)methyl)phenyl)thiophene-3-sulfonamide] | 1 to 5 µM
